Assay [1] deals with liver injury induced by carbon tetrachloride. The settings on record: serum day 61, n=6. On the procedure: Experiment 3 Protection of 5-Methyltetrahydrofolate Calcium on Liver Injury Induced by Carbon Tetrachloride
30 SPF-grade SD rats were chosen in half female and half male and randomly divided into vehicle control group (vegetable oil), model control group (1.5 ml·kg−1, 20% carbon tetrachloride vegetable oil solvent, intraperitoneal injection every 3 days), 5-methyltetrahydrofolate calcium low-dose group (1mg·Kg−1), 5-methyltetrahydrofolate calcium medium-dose group (2 mg·Kg−1), and 5-methyltetrahydrofolate calcium high-dose group (4 mg·Kg−1) according to their body weight. 20% carbon tetrachloride vegetable oil solvent was used as the inducer, and intraperitoneal injection was performed every 3 days for a total of 60 days. After successful modeling, the administration groups were given a dosage of 5-methyltetrahydrofolate calcium as prescribed above for gavage once a day, and the model group and the normal control group were gavaged once daily with purified water for 60 consecutive days. Blood was taken on the 61st day, and the levels of ALT and AST in serum were detected.

The test system of the next assay is IL-1β. Briefly: Alcoholic fatty liver model, IL-1β in hippocampus tissue (ELISA). It counts as in vivo, SD rats. Particulars: liquor model, n=16. On the procedure:
According to their weight, they were randomly divided into vehicle control group (purified water, ig), model control group (liquor, 10 ml·Kg−1), positive control group (bicyclol, 50 mg·Kg−1, ig), folic acid calcium salt high-dose group (4 mg·Kg−1), folic acid calcium salt medium-dose group (2 mg·Kg−1), folic acid calcium salt low-dose group (1 mg·Kg−1), in half female and half male, and 16 rats in each group. Purified water was used as a negative control, and bicyclol (place of origin: Beijing Xiehe Pharmaceutical Factory, specification: 25 mg/tablet, batch number: H20040467) was used as a positive control drug. Route of administration: all were administered by oral gavage. Dosage of administration: 1 mg·Kg−1, 2 mg·Kg−1, and 4 mg·Kg−1. Frequency of administration: once a day for 60 consecutive days.
Method of administration: administration started at prescribed doses on the day of modeling for 60 consecutive days and ended at the 60th day. At the same time, rats in each group were weighed every other week during administration period to monitor their body weight changes. On the 61st day, rats were dissected and serum was collected for determination of triglyceride (TG), total cholesterol (TC), malondialdehyde (MDA), superoxide dismutase (SOD) and liver histopathologic examination. The brain tissue of rats was taken out, and hippocampus tissue was separated on ice plate, prepared to homogenate with a mass fraction of 10% with purified water, then the homogenate was centrifuged to obtain supernatant. ELISA was used to detect the levels of inflammatory factors TNF-α and IL-1β in hippocampus tissue with continuous spectrum scanning microplate reader.

For a further assay, the system named is hyperlipemia rats. Briefly: Hyperlipemia rats (high-fat diet), body mass, liver mass, liver index, NASH pathology. It counts as in vivo, SD rats. The settings on record: for Body mass / Liver index / Liver mass: 8 cases; for Pathological state (NASH): of 8 cases. How it is done: Experiment 5 Effect of 5-Methyltetrahydrofolate Calcium on Hyperlipemia Rats
7 weeks later, one rat in the control group and one rat in the model group were sacrificed for liver tissue section to check fatty degeneration of hepatocytes (see Table 7) to confirm whether modeling was successful. The remaining 40 modeling rats were randomly divided into low-dose (1 mg·Kg−1) group, medium-dose (2 mg·Kg−1) group, high-dose (4 mg·Kg−1) group, positive drug group, and model group.
Bicyclol (place of origin: Beijing Xiehe Pharmaceutical Factory, specification: 25 mg/tablet, batch number: H20040467) was used as a positive drug.
After successful modeling, rats were administered drugs with dosages as prescribed for 60 consecutive days, continued to be fed with high-fat diet, and dissected on the 61st day. Liver was harvested and weighed, liver index was calculated, right lobe tissue was taken to prepare frozen sections, and fat staining was performed with Sudan III for pathological scoring according to guidelines for diagnosis and treatment of NAFLD. Another liver tissue was taken to prepare homogenate, and total cholesterol (TC), triglyceride (TG), malondialdehyde (MDA), and superoxide dismutase (SOD) in serum were detected.

The test system of another assay is mice after drinking. Particulars: n=10. How it is done:
Experiment 8 Tail Suspension Test and Swimming Test in Mice after Drinking
Clean-grade male Kunming mice, weighing 18-22 g, were chosen. The test was carried out at 23° C. with a humidity of 50%. The mice ate and drank freely, adapting to the environment for 5 days before the test. Then they were divided into 5 groups: model group, normal group, high-dose 5-MTHF-Ca group, medium-dose 5-MTHF-Ca group and low-dose 5-MTHF-Ca group (16 mg·Kg−1, 8mg·Kg−1, 4mg·Kg−1),
10 mice in each group. The model group was given (by gavage) Erguotou (batch number: 201603092, specification: 2L, place of origin: Beijing Shunxin Agriculture Co., Ltd.) at 18 ml·Kg−1, and calcium folate (Lianyungang Jinkang Hexin Pharmaceutical Co., Ltd.). The high-dose, medium-dose and low-dose groups were also given the solution containing Erguotou and calcium folate. The mice were tested after 24 h. The tail suspension test is carried out by fixing the tail of a mouse so that it is suspended head down in a state of desperately struggling to escape but unable to escape. After a period of time, record the immobility time of the mouse in a desperate state in this environment to observe the therapeutic effect after administration. The head of the mouse suspended upside down was 10 cm from the bottom of the box, and two mice were suspended at a time, which were separated by a partition to avoid collision. The mice were suspended for 10 min, and the accumulated immobility time of the suspended mice was counted within the latter 5 min. The results are as follows:
The mice were placed in a plastic swimming box with a length of 50 cm, a width of 40 cm and a height of 40 cm. The time was counted for 10 min after the mice were placed in the water. The accumulated immobility time of the mice with only slight limb movements and no struggling, and remaining afloat was recorded within the latter 5 min.

Setting [2] is: 1 mg·kg−1·d−1 gavage 60 d after CCl4 modeling.
Setting [3] is: 2 mg·kg−1·d−1 gavage 60 d after CCl4 modeling.
Setting [4] is: 4 mg·kg−1·d−1 gavage 60 d after CCl4 modeling.

Where two headings read alike, the source gives them in different places.

As for 5-methyltetrahydrofolate calcium, the ALT is reported as 54.64 ± 20.52 IU/L in assay [1] (setting [2]), 50.54 ± 20.12 IU/L in assay [1] (setting [3]) and 40.84 ± 16.31 IU/L in assay [1] (setting [4]). In addition, the AST in assay [1] (setting [2]) worked out at 185.73 ± 63.46 IU/L; in assay [1] (setting [3]), 156.97 ± 50.35 IU/L; in assay [1] (setting [4]), 125.87 ± 43.84 IU/L. Besides, the entries for the “IL-1β in hippocampus tissue” value in the assay with IL-1β (1 mg·kg−1·d−1 ig 60 d), in the assay with IL-1β (2 mg·kg−1·d−1 ig 60 d) and in the assay with IL-1β (4 mg·kg−1·d−1 ig 60 d) were 63.05 ± 5.31 μg · g^−1 prot, 63.24 ± 13.44 μg · g^−1 prot and 55.21 ± 3.59 μg · g^−1 prot, respectively. Moreover, the Body mass is on record as 472.49 ± 37.8 g in the assay with hyperlipemia rats (high dose 4 mg·Kg−1, 60 d); 445.89 ± 39.0 g with hyperlipemia rats (low dose 1 mg·Kg−1, 60 d); 452.93 ± 37.5 g with hyperlipemia rats (medium dose 2 mg·Kg−1, 60 d). Besides, the Liver index in the assay on hyperlipemia rats (high dose 4 mg·Kg−1, 60 d) is 2.3 ± 0.5; with hyperlipemia rats (low dose 1 mg·Kg−1, 60 d), 3.4 ± 0.3; in the assay on hyperlipemia rats (medium dose 2 mg·Kg−1, 60 d), 2.6 ± 0.2. Besides, the Liver mass in the assay on hyperlipemia rats (high dose 4 mg·Kg−1, 60 d) was 10.9 ± 2.5 g; with hyperlipemia rats (low dose 1 mg·Kg−1, 60 d), 15.3 ± 3.5 g; with hyperlipemia rats (medium dose 2 mg·Kg−1, 60 d), 11.6 ± 2.9 g. For the same substance, the “Pathological state (NASH)” value in the assay with hyperlipemia rats (high dose 4 mg·Kg−1, 60 d) is 0 case; in the assay with hyperlipemia rats (low dose 1 mg·Kg−1, 60 d) it was 1 case; with hyperlipemia rats (medium dose 2 mg·Kg−1, 60 d), 0 case. The Swimming immobility time in the assay on mice after drinking (high dose 16 mg·Kg−1 with Erguotou 18 ml·Kg−1, tested after 24 h) is given as 104.64 ± 5.24 S; in the assay on mice after drinking (low dose 4 mg·Kg−1 with Erguotou 18 ml·Kg−1, tested after 24 h) it was 123.56 ± 3.64 S; in the assay with mice after drinking (medium dose 8 mg·Kg−1 with Erguotou 18 ml·Kg−1, tested after 24 h), 110.42 ± 2.64 S.

The record behind these values is US20220280507A1, “USES OF 5-METHYLTETRAHYDROFOLATE AND ITS COMPOSITION” (Lianyungang Jinkang Hexin Pharmaceutical Co., Ltd., priority 2019, published 2022).
